Results: patent US12678428B2, “Synergistic composition for inhibiting vascular calcification” (Celagenex Research (India) Pvt. Ltd., priority 2021, dated 2026)

Legend:
[1] = test system: Human Keratinocytes cell line (HaCaT); test: Cytoprotective activity against AGE (methylglyoxal) induced oxidative stress, tryphan blue dye exclusion assay; format: cell-based; details: HaCaT cells treated with Methylglyoxal and test substance, 24 h; Metformin 5 mg; Test I 3.5 mg; Test II 0.5 mg; Test III 5 mg + 0.02 mg; Test IV 0.2 mg + 0.2 mg; Test V 3.5 mg + 0.5 mg
Experimental: (§1) The purpose of this study is to evaluate cytoprotective activity of test substance against advanced glycation end product (AGE) induced oxidative stress in Human Keratinocytes cell line (HaCaT). About 10 mg of the test substance was dissolved separately with 1 mL DMEM-HG supplemented with 2% inactivated FBS to obtain a stock solution of 10 mg/mL concentration and sterilized by 0.22μ syringe filtration. Dilute the stock to desired concentrations for carrying out further studies. HaCaT (Human Keratinocytes cells) was procured from AddexBio, U.S. Stock cells were cultured in DMEM-HG supplemented with 10% inactivated Fetal Bovine Serum (FBS), penicillin (100 IU/mL), streptomycin (100 μg/mL) and amphotericin B (5 μg/mL) in humidified atmosphere of 5% CO2 at 37° C. until confluent. The cells were dissociated with TPVG solution (0.2% trypsin, 0.02% EDTA, 0.05% glucose in PBS). The stock cultures were grown in 25 cm^2 culture flasks and all experiments were carried out in 96 microtitre plates (Tarsons India Pvt. Ltd., Kolkata, India). [table] The monolayer cell culture was trypsinized and the cell count was adjusted to 1.5×10^5 cells/mL using DMEM-HG containing 10% FBS. To each well of the 6 well plates, 2 mL of the diluted cell suspension was added. After 24 hours, when a partial monolayer was formed, supernatant was removed and washed the monolayer once with PBS and 1 mL of different test concentrations and combinations of test substances were added. The plate was then incubated at 37° C. for 24 h in a 5% CO2 atmosphere, and microscopic examination was carried out and observations were noted after 24 hours time. After 24 hours, the media was discarded and cells were trypsinized and pelleted by centrifugation, suspended in 1 mL of fresh media and performed dye exclusion test, i.e., mixed equal volume of cells suspended media and Tryphan blue. Viable and non-viable cells were counted using haemocytometer and values were recorded, and then percentage cell viability was calculated.

[2] = as above; format: cell-based, Human; details: human, HaCaT keratinocyte cells, HaCaT cells treated only with Methylglyoxal 300 μM (positive control)
Experimental: as §1

[3] = In vitro cytotoxicity by MTT assay in HaCaT cells; format: cell-based; details: human, HaCaT keratinocyte cells
Experimental: The in vitro cytotoxicity was performed on Human Keratinocytes (HaCaT) cell line to find the non-toxic concentrations of the test substances by MTT assay and evaluate their cytoprotective activity against advanced glycation end product (AGE) induced oxidative stress in Human Keratinocytes.
About 10 mg of the test substance was dissolved separately with 1 mL DMEM-HG supplemented with 2% inactivated FBS to obtain a stock solution of 10 mg/mL concentration and sterilized by 0.22μ syringe filtration. Dilute the stock to desired concentrations for carrying out further studies.
HaCaT (Human Keratinocytes cells) was procured from AddexBio, U.S. Stock cells were cultured in DMEM-HG supplemented with 10% inactivated Fetal Bovine Serum (FBS), penicillin (100 IU/mL), streptomycin (100 μg/mL) and amphotericin B (5 μg/mL) in humidified atmosphere of 5% CO2 at 37° C. until confluent. The cells were dissociated with TPVG solution (0.2% trypsin, 0.02% EDTA, 0.05% glucose in PBS). The stock cultures were grown in 25 cm^2 culture flasks and all experiments were carried out in 96 microtitre plates (Tarsons India Pvt. Ltd., Kolkata, India).
The cell culture monolayer was trypsinized and the cell count was adjusted to 1.0×10^5 cells/mL using DMEM-HG containing 10% FBS. To each well of the 96 well microtitre plate, 0.1 mL of the diluted cell suspension was added. After 24 hours, when a partial monolayer was formed, the supernatant was flicked off, the monolayer was washed once with PBS and 100 μL of different concentrations of test substance was added. The plate was then incubated at 37° C. for 24 hours in a 5% CO2 atmosphere, and microscopic examination was carried out and observations were noted after 24 h time.
After 24 hours of incubation, the drug solution in the wells was discarded and 50 μL of MTT in DPBS was added to each well. The plate was gently shaken and incubated for 3 hours at 37° C. in a 5% CO2 atmosphere. The supernatant was removed and 100 μL of DMSO was added and the plate was gently shaken to solubilize the formed formazan. The absorbance was measured using a micro plate reader at a wavelength of 570 nm. The percentage growth inhibition was calculated using the standard formula. The concentration of test substance, needed to inhibit the growth of the cell by 50% i.e., CTC50 values were generated from the dose-response curves.

With `CN(C)C(=N)N=C(N)N` [Metformin, reference compound] the “% Viability” value [1] was 70.79%.
With `CC(=O)NCCS(=O)(=O)O.[Mg]` [Test I, Magnesium 2-acetylamino ethane sulfonic acid] the “% Viability” value [1] was 42.39%.
In the case of `CC(=O)C=O` [Methylglyoxal, reference compound], the viability at 24 h, 300 μM [2] is reported as roughly 38.8%.
For `Cc1ncc(CO)c(CN)c1O` [2-methyl-4-aminomethyl-5-hydroxymethyl-3-Pyridinol], the “% Viability” value [1] was 41.23%, the cytotoxicity at 24 h, 0.125 mg/mL ([3]; test concentration 0.125 mg/mL) was 4.55% and the cytotoxicity at 24 h, 0.25 mg/mL ([3]; test concentration 0.25 mg/mL) was 5.68%. The cytotoxicity at 24 h, 0.5 mg/mL ([3]; test concentration 0.5 mg/mL) was 25.6%, the cytotoxicity at 24 h, 1 mg/mL ([3]; test concentration 1 mg/mL) was 63.4% and the cytotoxicity at 24 h, 2 mg/mL ([3]; test concentration 2 mg/mL) was 67%. For the same molecule, the cytotoxicity at 24 h, 3 mg/mL ([3]; test concentration 3 mg/mL) was 67.5%, the cytotoxicity at 24 h, 4 mg/mL ([3]; test concentration 4 mg/mL) was 75.8% and the cytotoxicity at 24 h, 5 mg/mL ([3]; test concentration 5 mg/mL) was 76%.
